According to US10806707B2, “Cannabis oil compositions and methods for preparation thereof” (priority 2015, dated 2020):
pEC50: −log10 of the molar value. Where two headings read alike, the source gives them in different places.

Tests used:
Format in all cases: cell-based
CNR2 (also known as CB2) [1] = target: T1, CNR2 (also known as CB2) (Homo sapiens, UniProt P34972); assay: cAMP competitive inhibition immunoassay (HitHunter), CNR2 activation; conditions: CNR2, cAMP assay
T1 construct: β-galactosidase enzyme fragment (implied by the complementation read-out)
T1 sequence (P34972 whole entry, species assumed, the tested form may be a part): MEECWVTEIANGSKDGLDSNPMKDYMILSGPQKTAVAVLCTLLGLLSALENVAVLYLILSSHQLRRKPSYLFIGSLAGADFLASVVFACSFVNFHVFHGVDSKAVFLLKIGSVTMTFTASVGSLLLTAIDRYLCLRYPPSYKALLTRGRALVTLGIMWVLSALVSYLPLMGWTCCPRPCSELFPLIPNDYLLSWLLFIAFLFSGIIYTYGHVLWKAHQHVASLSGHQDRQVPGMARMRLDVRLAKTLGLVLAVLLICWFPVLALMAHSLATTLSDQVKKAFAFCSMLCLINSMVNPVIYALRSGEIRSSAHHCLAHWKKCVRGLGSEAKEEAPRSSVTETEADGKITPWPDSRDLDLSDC

CNR1 (also known as CB1) [2] = target: T2, CNR1 (also known as CB1) (Homo sapiens, UniProt P21554); conditions: read-out: CNR1 β-Arrestin EC50
T2 construct: β-galactosidase enzyme fragment (implied by the complementation read-out)
T2 sequence (P21554 whole entry, species assumed, the tested form may be a part): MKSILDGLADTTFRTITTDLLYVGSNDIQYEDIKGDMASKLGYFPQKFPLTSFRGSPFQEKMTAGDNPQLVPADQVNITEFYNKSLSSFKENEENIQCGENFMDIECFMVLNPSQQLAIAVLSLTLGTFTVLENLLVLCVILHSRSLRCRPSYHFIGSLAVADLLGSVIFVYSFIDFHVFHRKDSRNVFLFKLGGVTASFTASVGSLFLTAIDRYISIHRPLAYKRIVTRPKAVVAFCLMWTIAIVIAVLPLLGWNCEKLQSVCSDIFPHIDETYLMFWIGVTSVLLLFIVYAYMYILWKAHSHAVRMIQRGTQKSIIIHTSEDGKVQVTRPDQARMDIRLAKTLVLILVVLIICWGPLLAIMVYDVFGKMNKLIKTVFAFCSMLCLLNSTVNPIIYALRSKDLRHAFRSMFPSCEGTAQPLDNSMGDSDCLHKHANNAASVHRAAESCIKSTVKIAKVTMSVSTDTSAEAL

CNR1 (also known as CB1) [3] = target: T2, CNR1 (also known as CB1); conditions: read-out: CNR1 cAMP EC50
CNR2 (also known as CB2) [4] = target: T1, CNR2 (also known as CB2); assay: β-arrestin GPCR assay (PathHunter), CNR2 activation; conditions: CNR2, β-arrestin recruitment

CCCCCc1cc(O)c2c(c1)OC(C)(C)[C@@H]1CCC(CO)=C[C@@H]21 [Example 11-OH-THC]
pEC50 (CNR2 (also known as CB2) [1]): 6.24 | pEC50 (CNR1 (also known as CB1) [2]): < 4.78 | pEC50 (CNR1 (also known as CB1) [3]): 7.97 | pEC50 (CNR2 (also known as CB2) [4]): < 4.78
